Measurements from paper PMC9440176, “Novel benzylidene benzofuranone analogues as potential anticancer agents: design, synthesis and in vitro evaluation based on CDK2 inhibition assays” (3 Biotech, 2022).
Read-outs that look alike come from different tables or passages of the source.

Legend:
CDK2/Cyclin A = CDK2/Cyclin A (Homo sapiens, UniProt P24941); test: CDK2/cyclin A inhibitory assay, Z'-LYTE FRET kinase assay; assay type: biochemical; settings: concentration of 100 micro molar; 1000 ng/ml kinase, 1000 µM ATP
From the text: Z’-LYTE® technology involves homogeneous assay design based on FRET and is a universal platform for both screening as well as profiling protein kinases. The assay uses a peptide substrate labeled with two different fluorophores, coumarin donor and fluorescein acceptor on each end. These two fluorophores make up a FRET pair, which allows the transfer of energy when both are present on the same molecule. The initial kinase reaction transfers the ϒ-phosphate of ATP to a tyrosine or serine/threonine residue on the substrate. In a secondary reaction, referred to as the development reaction, a site-specific protease recognizes and cleaves only non-phosphorylated peptide, while phosphorylated substrate remains uncleaved. […] Upon excitation of Coumarin at 400 nm, the FRET signal is measured as a ratio between the Coumarin donor emission at 445–460 nm and the fluorescein acceptor emission at 520–535 nm(Lebakken et al. [2007]).
Initial ten-fold and two-fold dilutions of Kinase and ATP concentrations were used to choose the optimal Kinase and ATP concentration based on the % Phosphorylation.
The assay was carried out according to the kit instructions (384 well format). Briefly, 5X kinase buffer [250 mM HEPES (pH 7.5), 50 mM MgCl2, 5 mM EGTA, 0.05% BRIJ-35] was diluted to 1X using distilled water. The phosphor peptide positive control (Z’-LYTE® Tyr 4 phospho-peptide) and the non-phosphorylated negative control (Z’-LYTE® Tyr 4 peptide) were then diluted to 1:500 with 1× kinase buffer to 2 μM. […] Working development solution was then made by diluting 12 μL of the provided stock solution with 388 μL of the provided development buffer. Aliquots (20 μL) of each peptide mixture were then added to the wells of a Corning 3914 solid white microplate in replicates of 8. The development reaction was initiated by the addition of 10 μL of working development-solution to all the wells. Further, the plates were allowed to incubate at room temperature for 60 min. Reactions were then stopped by the addition of 10 μL of stop solution (Jia et al. [2008]).
Reactions were quantitated using a Tecan Robotic Microplate Reader. Reader control, blank subtraction, ratio metric calculations and finally graph plotting were carried out using Gen5™ Data Analysis Software.
The CDK2/Cyclin A assay was carried out as per the manufacturer’s instruction using suitable controls and standard.
The inhibitory assay was carried out using the stock of 10 mM in DMSO. Samples were further serially diluted to obtain concentrations of 100 μM. The concentrations were chosen based on the IC50 values obtained in the MTT assay. A total of 23 analogues were selected for the assay based on their antiproliferative activity. Further, selected compounds were screened and tested against the target CDK2/Cyclin A, and their % phosphorylation and % inhibition were recorded.

HCT 116 = test: MTT cytotoxicity assay on HCT 116; assay type: cell-based, Human; settings: read-out: Inhibition of cell proliferation, IC50, HCT 116
Method: (§1) The monolayer cell culture was trypsinized and the cell count was adjusted to 5.0 × 10^5 cells/ml using respective media containing 10% FBS. To each well of the 96-well microtiter plate, 100 µL of the diluted cell suspension (50,000cells/well) was added. After 24 h, when a partial monolayer was formed, the supernatant was flicked off, the monolayer was then washed once again with the medium and 100 µL of different test concentrations of test drugs were added on to the partial monolayer in microtiter plates. The plates were then incubated at 37 °C for 24 h in 5% CO2 atmosphere. After incubation, the test solutions in the wells were discarded and 100 µL of MTT (5 mg/10 ml of MTT in PBS) was added to each well. The plates were then incubated for 4 h at 37 °C in 5% CO2 atmosphere. The supernatant was then removed and 100 µL of DMSO was added and the plates were gently shaken to solubilize the formed formazan. The absorbance was measured using a microtiter plate reader at a wavelength of 590 nm. The percentage growth inhibition was thus calculated using the following formula and the concentration of the test drug required to inhibit the cell growth by 50% (IC50) values is generated from the dose–response curves for each one of the cell lines (Meerloo et al. [2011]).
(§2) The test compounds were screened for their in vitro cytotoxicity by MTT assay against two cancer cell lines, namely MCF-7, HCT-116 and normal epithelial kidney cells (Vero). Doxorubicin was used as a reference standard.

[1] = ABTS.+ radical scavenging assay
Method: The assay was performed in a 96-well plate by serial dilution method. A 2 mM ABTS^.+ working solution was prepared in a phosphate buffer (Zheleva-Dimitrova et al [2010]).To this, 200 μL of aqueous potassium per sulfate (70 mM) solution was added and the solution was incubated for 24 h in the dark at room temperature to develop a blue-green color. To 30 μL of ABTS^.+ working solution, 50 μL of different concentrations (3.9–1000 μM) of the test sample solution and 170 μL of phosphate buffer (pH-7.4) were added in a well. The plate was then incubated in the dark at room temperature for 10 min. Then absorbance was measured at 690 nm using Elisa reader. Quercetin and ascorbic acid were used as standards. The percentage scavenging of ABTS^.+ was calculated using the formula, (Control Absorbance–Test Absorbance)*100/(Control Absorbance) and the anti-oxidant activity was expressed in terms of IC50 value.

[2] = test system: normal epithelial kidney cells (Vero); test: MTT cytotoxicity assay on Vero; assay type: cell-based; settings: 24 h, read-out: Inhibition of cell proliferation, IC50, Vero
Method: as §1, §2

MCF-7 = test: MTT cytotoxicity assay on MCF-7; assay type: cell-based; settings: read-out: Inhibition of cell proliferation, IC50, MCF-7
Method: as §1, §2

[3] = test system: MCF-7 and HCT 116 cell lines; test: MTT cytotoxicity, IC50 range stated over MCF-7 and HCT 116; assay type: cell-based; settings: range over both cell lines; read-out: Cytotoxic activity IC50 range against MCF 7 and HCT 116
Method: as §1, with “[2011]). […]” for “[2011]).”

[4] = DPPH. free radical scavenging assay
Method: DPPH. assay was performed using 96-well plate by serial dilution method. The dilution of methanolic stock solution of the test compounds and standard anti-oxidants was carried out to obtain concentration in the range of 3.9–1000 µM. Quercetin and ascorbic acid were used as standards. To a 100 μL of this solution, 100 μL of 200 µM DPPH^. in methanolic solution was added. The experiment was done in triplicate and the plate was then incubated for 30 min in the dark and later the absorbance was measured at 517 nm using Elisa reader. The percentage DPPH^. Scavenging was calculated using the formula, (Control Absorbance–Test Absorbance)*100/(Control Absorbance). The anti-oxidant activity of the test compounds was expressed in terms of concentration required for 50 percentage inhibition (IC50) (Collins [2005]).

HCT-116 cells = test: Apoptosis detection by propidium iodide / Annexin V-FITC; assay type: cell-based, Human; design: FACS analysis of apoptosis detection, Viable cells / FACS analysis of apoptosis detection, Early apoptotic / FACS analysis of apoptosis detection, Late apoptotic / FACS analysis of apoptosis detection, Necrotic: unit not given here; settings: 20 μM
Method: The day before induction of apoptosis, 1 × 10^6cells per well were plated on a 6-well plate using respective media with 10% FBS and 1% PenStrep, incubated overnight at 37 °C at 5% CO2.The media was replaced with test solutions of different concentrations in the media containing 10% FBS. The treated cells were incubated for 24 h at normal culture conditions. The cells were further harvested and the well contents were completely transferred into the sterile FACS tubes. The cell contents were centrifuged at 2000 rpm for 5 min and the supernatant was discarded. After centrifugation, the cells were washed twice with cold PBS and then resuspended in 1 ml of binding buffer at a concentration of 1× 10^6 cells/ml. […] of the cell suspension (5× 10^5 cells) were then transferred into a fresh FACS tube (Vermes et al. [1995]). Further, cells were gently mixed with […] of propidium iodide and […] of Annexin V before being incubated for 20 minutes at room temperature in the dark. The cells were immediately analyzed by flow cytometer within a duration of an hour.

HCT 116 cell lines = test: Cell cycle analysis (PI, FACS); assay type: cell-based, Human; settings: standard at 25 μM
Method: The cell cycle analysis was followed where 1 × 10^6 cells were seeded and cultured for 24 h in a 6-well plate containing 2 ml of the media. Cells were then treated with desired concentrations of the given samples that were prepared in media and further incubated for another 24 h. Cells were then harvested and centrifuged at 2000 rpm for 5 min at room temperature and the supernatant was discarded carefully retaining the cell pellet. Cell pellet was then washed by resuspending in 2 ml of 1XPBS. The washing was repeated another time under the same conditions. Further, the supernatant was discarded retaining the pellet. Cells were then fixed by resuspending in 300 µL of Sheath fluid followed by the addition of 1 ml of chilled 70% ethanol drop by drop gently with continuous shaking and one more mL of the same at once. The cells were then stored at 4 °C overnight. Post fixing, the cells were centrifuged at 2000 rpm for 5 min washed twice with 2 ml of cold 1XPBS and suspended in 450 µL of sheath fluid containing 0.05 mg/ml PI (Propidium iodide), 0.05 mg/ml RNase A and incubated for 15 min in the dark (Kasibhatla et al. [2006]).The percentage of cells in various stages of cell cycle both in the treated as well as un-treated populations was determined using FACS Caliber (BD Biosciences, San Jose, CA).

Compound	% inhibition on CDK2/cyclin A (CDK2/Cyclin A) [%]	IC50 [1] [µM]	IC50 [4] [µM]	IC50 (HCT 116; 24 h) [µM]	IC50 [2] [µM]	IC50 (MCF-7; 24 h) [µM]	further results
COc1cc(OC)c(C2=CCN(C)CC2)c2c1C(=O)/C(=C/c1ccccc1Br)O2 [NMA2]	35.350	66.5 ± 2.02	83.2 ± 6.42				IC50 (HCT 116; Homo sapiens, HCT-116, 24 h): 34.9 µM; IC50 ([2]; Chlorocebus sabaeus, Vero): 154 µM; IC50 (MCF-7; Homo sapiens, MCF7, 24 h): 26.8 µM; IC50 [3]: 21.2 to 44 µM
COc1cccc2c1C(=O)c1c(O)c3c(c(O)c1C2=O)C[C@@](O)(C(=O)CO)C[C@@H]3O[C@H]1C[C@H](N)[C@H](O)[C@H](C)O1 [Doxorubicin, reference compound]							IC50 (HCT 116; Homo sapiens, HCT-116, 24 h): 8.11 µM; FACS analysis of apoptosis detection, Early apoptotic (HCT-116 cells): 4.44; FACS analysis of apoptosis detection, Late apoptotic (HCT-116 cells): 26.61; FACS analysis of apoptosis detection, Necrotic (HCT-116 cells): 19.86; FACS analysis of apoptosis detection, Viable cells (HCT-116 cells): 49.09; apoptotic index (HCT-116 cells): 26.61%; IC50 ([2]; Chlorocebus sabaeus, Vero): 165 µM; IC50 (MCF-7; Homo sapiens, MCF7, 24 h): 0.68 µM
CCN1CC=C(c2c(OC)cc(OC)c3c2O/C(=C\c2ccc(Br)cc2)C3=O)CC1 [NEA4]	27.236	71.67 ± 0.34	94.7 ± 4.9	93.6	188	82.7	
CCN1CC=C(c2c(OC)cc(OC)c3c2O/C(=C\c2ccc(OC)c(OC)c2)C3=O)CC1 [NEA5]	26.007	> 1000	339 ± 9.65	175	177	135	
CCN1CC=C(c2c(OC)cc(OC)c3c2O/C(=C\c2ccc(Cl)cc2)C3=O)CC1 [NEA6]	25.879	198.18 ± 0.08	223 ± 4.87	124	192	95.4	
COc1cc2c(c(OC)c1OC)-c1ccc(OC)c(=O)cc1[C@@H](NC(C)=O)CC2 [Colchicine, reference compound]							percentage cell population G2/M phase (HCT 116 cell lines): 43.78; percentage cell population GO/G1 phase (HCT 116 cell lines): 47.39; percentage cell population S phase (HCT 116 cell lines): 8.61
COc1cc(OC)c(C2=CCN(C)CC2)c2c1C(=O)/C(=C/c1ccccc1C)O2 [NMA3]	24.987	89.8 ± 1.48	103 ± 7.78	89	188	62.7	
COc1cc(OC)c(C2=CCN(C(C)C)CC2)c2c1C(=O)/C(=C/c1ccccc1C)O2 [NISOA3]	43.654	187 ± 8.03	284 ± 12.3	89.5	> 200	70.4	
COc1ccc(/C=C2\Oc3c(c(OC)cc(OC)c3C3=CCN(C)CC3)C2=O)cc1 [NMA5]	25.098	87 ± 0.18	98.2 ± 1.99	139	> 200	155	
